Laboratory results as given in patent publication EP0559845B1, “Use of compounds in preventing endotoxin shock” (priority 1991, dated 1992).

Key:
[1] = system: LPS-induced GTPase activity in membranes isolated from RAW 264.7 cells; assay: GTPase assay: effect of compounds on LPS-stimulated GTPase activity in macrophage membranes (release of 32Pi from γ-32P-GTP); type: biochemical
Description: (§1) We sought to directly evaluate the influence of LPS on possible G-protein function by examining agonist-enhanced GTPase activity, which is a hallmark of G-protein action. Moreover, because macrophages are one of the key cell types in the release of toxic mediators following an LPS challenge, we first assessed the capacity of LPS to influence GTPase activity in membranes isolated from RAW 264.7 cells, which is a highly LPS-responsive macrophage cell line. In these studies, GTPase activity was measured using a standard assay. The activity was determined using 2 µM γ-^32P-GTP in the presence of 0.1 mM ATP and 0.2 mM of the non-hydrolyzable ATP analog, AMPPNP, in order to minimize nonspecific nucleotidase activity in the membrane preparations.
The reaction is initiated by the addition of the γ-^32P-GTP and the mixture incubated at 30-37°C for 15 to 30 minutes. The reaction is terminated by the addition of 500µl of 5% trichloroacetic acid and 500µl of 0.1gm/ml acid-activated charcoal in 5% trichloroacetic acid. The samples are centrifuged at 14,000xg for 10 minutes, and a 550µl aliquot of the supernatant is removed for scintillation counting. The supernatant will contain the released ^32Pi. The extent of GTPase inhibition is measured by the decrease in the amount of ^32Pi released from γ-^32P-GTP. Appropriate controls include mixtures with one of the following omitted: (i) test compound, (ii) endotoxin, and (iii) ATP, ADP or AMPPNP.
The membranes are resuspended in 20 mM HEPES (pH 7.4), 1 mM dithiothreitol, 1 mM EDTA and 10 µg leupeptin/ml. Aliquots are stored at -70°C until assayed.

[2] = system: TNFα production by RAW264.7 macrophages; assay: LPS-mediated TNF production by macrophages, measured by cell viability assay on actinomycin D-sensitized L929 cells; type: cell-based; conditions: RAW264.7 cells treated with 2-MeSATP (0-5µM), LPS and ATP
Method: Moreover, 2-MeSATP decreased LPS-mediated TNFα production by RAW264.7 macrophages. Production of TNF by the macrophage cells was measured by a "cell viability" assay. This is a standard assay described in Birkland, et al., Adv. Exp. Med. Biol. 256: 399-402 (1990). In brief, TNF in solution will kill actinomycin D-sensitized L929 cells, which can be measured by a loss of MTT dye reduction. The supernatent was removed from RAW264.7 cells treated with 2-MeSATP, LPS and ATP. The greater the amount of 2-MeSATP added (0-5µM), the less TNF was produced by the macrophage cells.

[3] = system: GTPase activity in membranes isolated from a macrophage (RAW 264.7) cell line; assay: GTPase assay, basal activity and single agonists; type: biochemical
Description: as §1, with “preparations. In the preferred practice of the present invention, the ability of a candidate compound to inhibit LPS-induced GTPase is assessed by measuring the release of ^32Pi from γ-^32P-GTP.” for “preparations.”
We first determined the optimal LPS concentration for GTPase stimulation. In all experiments, the LPS dose response curve was quite steep, and with the highest activity occurring around 200-300 µg LPS/ml.
Under these conditions, GTPase activation was evident at 100 µg LPS/ml (roughly 6 µM assuming an average MW ∼ 17,000 kDa), and the maximal effect was seen by 300 µg/ml LPS. (2) To show adenosine mucleotide synergism with LPS-stimulated GTPase activity, either 10µM ATP or 30µM ADP replace the 0.1 mM ATP and 0.2 mM AMPPNP of the standard assay described by Cassel et al. and Neer et al.
Because the above inhibitor studies indicated a maximum LPS-stimulated GTPase activity in the presence of ATP and ATP analogs, we investigated this interaction by measuring the ATP-dependence of the GTPase activity in macrophage membranes in the presence and absence of an optimal dose of LPS. […] This stimulation by ATP may be due to the action of purinergic receptors, i.e., the adenosine and ATP receptors which are well-characterized to be coupled to various G-proteins.
To assess whether the LPS/ATP-enhanced GTPase is a "low Km" form, which would be expected for a variety of large and small MW G-proteins, as well as for various GAP and ARF-like proteins, as opposed to a "high Km" form, such as a phosphatase, we assayed the GTPase activity using 0.2 and 50 µM GTP essentially as described previously. […] The LPS and ATP stimulated a low Km GTPase activity by ∼30% and 70%, respectively, when added individually. This stimulation of low Km activity was slightly greater than that estimated using the standard assay conditions. […] The LPS stimulation of GTPase activity is enhanced by adenine nucleotides.

2-methylthio-ATP [2-MeSATP]
inhibition of LPS-stimulated GTPase activity [1]: blocks
stimulation (potentiation) of LPS-stimulated GTPase activity [1]: no stimulatory effect
antagonism of the stimulatory effects of ATP on LPS-inducible GTPase activity ([1]; 2-MeSATP 0-100µM): did antagonize
relative abilities of purines to stimulate LPS-enhanced GTPase ([1]; dose-response studies, rank order): ATP> ATPγS> ADP> AMPPNP>> β,γ methylene ATP> 2-MeSATP
LPS-mediated TNFα production [2]: decreased
LPS-mediated TNFα production ([2]; listed as 2-methylthio-ATP): blocks

phosphatidic acid
effect on basal GTPase activity [3]: did not stimulate

phosphatidylcholine
effect on basal GTPase activity [3]: did not stimulate

phosphatidylserine
effect on basal GTPase activity [3]: did not stimulate
